Read-outs that look alike come from different tables or passages of the source.
System: lymphocytic leukemia P388
Assay: Lymphocytic leukemia P388 test (intraperitoneal administration)
Format: in vivo, DBA/2 mice
Method: The animals used are DBA/2 mice all of one sex, weighing a minimum of 17 g. and all within a 3 gram weight range. There are 5 or 6 animals per test group. The tumor transplant is by intraperitoneal injection of 0.1 ml. of dilute ascitic fluid containing 10^6 cells of lymphocytic leukemia P388. The test compounds are administered intraperitoneally on days one, 5 and 9 (relative to tumor inoculation) at various doses. The animals are weighed and survivors are recorded on a regular basis for 30 days. The median survival time and the ratio of survival time for treated (T)/control (C) animals are calculated.

[1] = 6.25 mg./kg. i.p., days 1, 5 and 9
[2] = 12.5 mg./kg. i.p., days 1, 5 and 9
[3] = 25 mg./kg. i.p., days 1, 5 and 9
[4] = 50 mg./kg. i.p., days 1, 5 and 9
[5] = 100 mg./kg. i.p., days 1, 5 and 9
[6] = 200 mg./kg. i.p., days 1, 5 and 9
[7] = Mus musculus, P388, ip, 6.25 mg./kg. i.p., days 1, 5 and 9, efficacy ≥125%, read-out: T/C × 100
[8] = Mus musculus, P388, ip, 12.5 mg./kg. i.p., days 1, 5 and 9, efficacy ≥125%, read-out: T/C × 100
[9] = Mus musculus, P388, ip, 25 mg./kg. i.p., days 1, 5 and 9, efficacy ≥125%, read-out: T/C × 100
[10] = Mus musculus, P388, ip, 50 mg./kg. i.p., days 1, 5 and 9, efficacy ≥125%, read-out: T/C × 100
[11] = Mus musculus, P388, ip, 100 mg./kg. i.p., days 1, 5 and 9, efficacy ≥125%, read-out: T/C × 100
[12] = Mus musculus, P388, ip, 200 mg./kg. i.p., days 1, 5 and 9, efficacy ≥125%, read-out: T/C × 100

Row | SMILES | Median Survival Time [1] [days] | Median Survival Time [2] [days] | Median Survival Time [3] [days] | Median Survival Time [4] [days] | Median Survival Time [5] [days] | Median Survival Time [6] [days] | response vs control in vivo at 6.25 mg/kg [7] [%] | response vs control in vivo at 12.5 mg/kg [8] [%] | response vs control in vivo at 25 mg/kg [9] [%] | response vs control in vivo at 50 mg/kg [10] [%] | response vs control in vivo at 100 mg/kg [11] [%] | response vs control in vivo at 200 mg/kg [12] [%] | further results
1 | CC(O)CNCCNC1=C2C(=O)c3c(O)ccc(O)c3C(=O)C2=C(NCCNCC(C)O)CC1 (centres unmarked) [Leuco-1,4-bis[2-(2-hydroxy-1-propylamino)ethylamino]-5,8-dihydroxyanthraquinone] | 20.0 | 21.5 | 20.5 | 24.0 | 26.5 | 9.0 | 182 | 195 | 186 | 218 | 241 | 82 | 
2 | O=C1C2=C(NCCNCCCO)CCC(NCCNCCCO)=C2C(=O)c2c(O)ccc(O)c21 [Leuco-1,4-bis[2-(3-hydroxy-1-propylamino)ethylamino]-5,8-dihydroxyanthraquinone] | 16.5 | 19.5 | 22.0 | 34.0 | 38.0 | 14.0 | 150 | 177 |  | 309 | 345 | 127 | Median Survival Time (0.78 mg./kg. i.p., days 1, 5 and 9): 18.0 days; Median Survival Time (1.56 mg./kg. i.p., days 1, 5 and 9): 19.5 days; Median Survival Time (3.1 mg./kg. i.p., days 1, 5 and 9): 18.5 days; response vs control in vivo at 25 mg/kg (Mus musculus, P388, ip, read-out: T/C × 100): 200%; response vs control in vivo at 0.78 mg/kg (Mus musculus, P388, ip, 0.78 mg./kg. i.p., days 1, 5 and 9, efficacy ≥125%, read-out: T/C × 100): 164%; response vs control in vivo at 1.56 mg/kg (Mus musculus, P388, ip, 1.56 mg./kg. i.p., days 1, 5 and 9, efficacy ≥125%, read-out: T/C × 100): 177%; response vs control in vivo at 3.1 mg/kg (Mus musculus, P388, ip, 3.1 mg./kg. i.p., days 1, 5 and 9, efficacy ≥125%, read-out: T/C × 100): 168%
3 | O=C1C2=C(NCCN(CCO)CCO)CCC(NCCN(CCO)CCO)=C2C(=O)c2c(O)ccc(O)c21 [Leuco-1,4-bis[2-[di(β-hydroxyethyl)amino]ethylamino]-5,8-dihydroxyanthraquinone] |  | 13.5 | 15.0 | 16.0 | 17.0 | 19.0 |  | 135 | 150 | 160 | 170 | 190 | Median Survival Time (6.2 mg./kg. i.p., days 1, 5 and 9): 12.0 days; response vs control in vivo at 6.2 mg/kg (Mus musculus, P388, ip, 6.2 mg./kg. i.p., days 1, 5 and 9, efficacy ≥125%, read-out: T/C × 100): 120%
4 | O=C1C2=C(NCCCNCCO)CCC(NCCCNCCO)=C2C(=O)c2c(O)ccc(O)c21 [Leuco-1,4-bis[3-(2-hydroxyethylamino)-1-propylamino]-5,8-dihydroxyanthraquinone] | 18.0 | 19.0 | 18.5 | 25.0 | 27.5 | 33.5 | 164 | 173 | 168 | 227 | 250 | 305 | Median Survival Time (3.12 mg./kg. i.p., days 1, 5 and 9): 15.0 days; response vs control in vivo at 3.12 mg/kg (Mus musculus, P388, ip, 3.12 mg./kg. i.p., days 1, 5 and 9, efficacy ≥125%, read-out: T/C × 100): 136%
